Tests used:
[1] = target: bovine serum albumin (BSA) (Bos taurus, UniProt P02769); assay: Fluorescence labeling of BSA with TPE-SO3 in phosphate buffer; conditions: BSA 5 μM, pH 7.0
Description: Fluorescence labeling was carried out by sequentially adding solutions of TPE-SO3 to 100 μL aliquots of BSA solutions. The mixtures were stirred for half an hour prior to taking their spectra.
The PL peak intensities of the BSA prepared with the lowest concentrations of TPE-SO3 were used as the reference and plots of the normalized fluorescence versus the concentrations of TPE-SO3 were obtained (FIG. 22). […] TPE-SO3 is represented by the following chemical formula: […]

[2] = Quantum efficiency of TPEMBR before and after reaction with dithiothreitol (DTT); type: physicochemical; conditions: water/THF solution, water fraction 90 vol %
Description: In addition to the enhancement of fluorescence because of its AIE property, TPEMBR becomes even more emissive through the reaction between its bromomethyl group and thiol group of proteins, presumably due to the elimination of the internal heavy atom effect of bromide. […] TPEMBR and DTT in equal amount were dissolved in THF to give a concentration of 10 μM for each component. The mixture was then incubated at room temperature overnight. Photoluminescence intensity and UV absorption of TPEMBR were measured in THF/water mixtures with a water fraction of 90 vol % before and after reacting with DTT. As shown in FIGS. 12a and 12b, the quantum efficiency of TPEMBR in the water/THF solution with a water fraction of 90 vol % was approximately 3 times higher after reacting with DTT.

BSA (35 Cys) = BSA (35 Cys) (Bos taurus, UniProt P02769); assay: Fluorescent labeling of Cys residues of protein with TPEMBR, SDS-PAGE; parameters: species or system bovine
Description: (§1) 2.5 μL Tris-HCl (1 M), 2.5 μL TCEP (20 mM), 5 μL BSA (1 mg/mL, 15 μM), and 30 μL urea (8 M in water) was added to a 1.5 mL Eppendorf tube and mixed well. The mixture was incubated at room temperature for 30 min to pre-reduce the disulfide bonds with TCEP. Then, 10 μL of the TPEMBR DMSO stock solution (2.5 mM 5×) was added to the system and made the final volume 50 μL. The reaction mixture was incubated for 3 hours at 50° C. in an Eppendorf Thermomixer. Then, samples were cooled either to room temperature for instant use or frozen for eventual use.
In order to ensure that the Cys residues were sufficiently labeled with TPEMBR, a longer reaction time (usually overnight) at or below room temperature was required. Alternatively, the reaction time could be reduced if labeling was carried out at 50° C. To verify the time-dependence of labeling efficiency, bovine serum albumin (BSA) samples were labeled with TPEMBR for different times ranging from 10 min to 4 h and analyzed by SDS-PAGE. The fluorescence intensity of the labeled BSA increased as the reaction time was extended. The maximum intensity under specific labeling conditions was observed after 3 h and remained unchanged even with an additional 1 h of reaction time (FIGS. 11a and 11b). […] The time-dependent labeling effect provides a way to determine the desirable DOL according to different applications by simply controlling the labeling time. Meanwhile, a lower temperature labeling process with a longer reaction time could be a better choice to obtain fluorescent proteins while maintaining their native structures.
BSA samples were subjected to labeling with different dye concentrations. The SDS-PAGE fluorescence intensity of labeled BSA increased with increasing dye concentration. […] Further increasing the dye concentration could give higher fluorescence intensity due to nonspecific labeling. Clearly, the DOL of protein samples can be controlled by varying the dye concentration.
(§2) Specific labeling of Cys residues by TPEMBR was examined through the labeling of proteins with different Cys contents. BSA (35 Cys), yeast enolase (single Cys) and horse myoglobin (0 Cys) were labeled with 0.5 mM of TPEMBR, respectively. The corresponding fluorescent products were analyzed on gel. […] The results further confirmed the specificity of TPEMBR to Cys residue when the working concentration of 0.5 mM was used.
BSA was labeled by each dye with a series of varying dye/thiol ratios. After the electrophoresis, the gel fluorescent image was taken under UV excitation and the fluorescence intensity was obtained from three independent experiments. Fluorescence intensities normalized with the sample with the lowest dye concentration are plotted versus the dye/thiol ratio (FIG. 16). […] This self-quenching effect is inevitable for self-quenching dyes such as 5-BMF and limits these dyes' application on quantification of proteins. In contrast, detection and quantification of proteins with high contents of Cys can be easily achieved by using AIE active molecules such as TPEMBR.

horse myoglobin (0 Cys) = horse myoglobin (0 Cys) (Equus caballus, UniProt P68082); assay: as above; conditions: 0.5 mM dye
Description: as §1, §2

[3] = Fluorescence quantum efficiency in the solid state; type: physicochemical
Text: (§3) Tetrahydrofuran (THF; Labscan) was distilled under nitrogen from sodium benzophenone ketyl immediately prior to use. Acrylamide was purchased from Bio-Rad. Aminoallyl-dUTP (aa-dUTP), dNTPs, DNase I (RNase-free), DNA Polymerase I, Klenow Fragment exo-, Random Hexamer Primer, Long PCR Enzyme Mix and GeneJET™ PCR Purification Kit, GeneRuler™ 100 bp Plus DNA Ladder (ready-to-use, 100-3000 bp), 6×DNA Loading Dye were purchased from Fermentas (Thermo Scientific). Deep VentR™ exo-DNA Polymerase was purchased from New England Biolabs (NEB). Synthesized oligonucleotides (primers) were purchased from Tech Drogon Limited. GelRed™ Nucleic Acid Gel Stain (10000× in water) was purchased from Biotium. Other chemicals, reagents and solvents were all purchased from Aldrich or Invitrogen. ^1H and ^13C NMR spectra were measured on a Bruker ARX 400 NMR spectrometer using CDCl3 as solvent. High-resolution mass spectra (HRMS) were taken on a Finnigan TSQ 7000 triple quadrupole spectrometer in a MALDI-TOF mode. UV spectra were measured on a Milton Roy Spectronic 3000 Array spectrophotometer. Fluorescence (FL) spectra were recorded on a Perkin-Elmer LS 55 spectrofluorometer. FL quantum yields (ΦF) of amorphous powders of siloles were measured using C-701 Time-Resolved Spectrofluorometer with the integrating sphere as accessory.

[4] = Photoluminescence in THF/water mixtures with different water fractions (aggregation induced emission); type: physicochemical; conditions: water/THF solution, water fraction 90 vol %
Text: The AIE of TPENCS is illustrated in FIG. 1. […] With water content ranging from 0-70%, the fluorescence intensity remained at a very low level. When the water concentration was in the 80-90 vol % range, a rapid and dramatic increase of the fluorescence intensity with increasing water content was observed (FIG. 1b). The PL intensity of TPENCS in the water/THF solution with a water fraction of 90 vol % was approximately 50-fold higher than that in the mixture with 70% water. The quantum efficiency of TPENCS was 52.2% in the solid state.
Similar to other AIE active molecules, TPEMBR only gave weak emission in good solvents such as THF. […] To quantify the effect of water content on the degree of fluorescent emission enhancement, the photoluminescence intensity of TPEMBR was measured where the fraction of water was increased from 0 to 90 vol %. With the water content in the range of 0-70%, the fluorescent intensity remained at a very low level. With the water fraction reaching the 80-90 vol % range, a rapid and dramatic increase of the fluorescent intensity was observed (FIG. 9b). The photoluminescence intensity of TPEMBR in the water/THF solution with a water fraction of 90 vol % was approximately 50-fold stronger than that in the mixture with 70% water. In the solid state, the quantum efficiency of TPEMBR was determined to be 31.7%.
The AIE of SITC is illustrated in FIGS. 17a and 17b. The wavelength at maximum absorption of SITC was at 363 nm and the emission maximum was at 490 nm. […] To quantify the effect of water content on the elevation of the fluorescent emission, the photoluminescence intensity of SITC was measured with concentration of water increasing from 0 to 90 vol %. With water content ranging from 0-70%, the fluorescent intensity remained at a very low level. When the water concentration was in the 80-95 vol % range, a rapid and dramatic increase of the fluorescent intensity with increasing water content was observed (FIG. 17b). The photoluminescence intensity of SITC in the water/THF solution with a water fraction of 95 vol % was approximately 50-fold higher than that in the mixture with 70% water. The quantum efficiency of SITC was 45.8% in the solid state.
as §3
Structure of dye is confirmed by standard spectroscopic methods (FIGS. 23, 26a, and 27a). In order to confirm TPEITC is AIE-active, we investigated its fluorescence in THF/water mixtures with different water fractions. […] TPEITC molecules with hydrophobic aromatic cores precipitated and became aggregate in the nonsolvent mixture. Aggregation blocks the nonradiative relaxation channels and populates the radiative decay, thus resulting in high luminescence. […]

BSA (35 Cys), sequence (P02769 25-607): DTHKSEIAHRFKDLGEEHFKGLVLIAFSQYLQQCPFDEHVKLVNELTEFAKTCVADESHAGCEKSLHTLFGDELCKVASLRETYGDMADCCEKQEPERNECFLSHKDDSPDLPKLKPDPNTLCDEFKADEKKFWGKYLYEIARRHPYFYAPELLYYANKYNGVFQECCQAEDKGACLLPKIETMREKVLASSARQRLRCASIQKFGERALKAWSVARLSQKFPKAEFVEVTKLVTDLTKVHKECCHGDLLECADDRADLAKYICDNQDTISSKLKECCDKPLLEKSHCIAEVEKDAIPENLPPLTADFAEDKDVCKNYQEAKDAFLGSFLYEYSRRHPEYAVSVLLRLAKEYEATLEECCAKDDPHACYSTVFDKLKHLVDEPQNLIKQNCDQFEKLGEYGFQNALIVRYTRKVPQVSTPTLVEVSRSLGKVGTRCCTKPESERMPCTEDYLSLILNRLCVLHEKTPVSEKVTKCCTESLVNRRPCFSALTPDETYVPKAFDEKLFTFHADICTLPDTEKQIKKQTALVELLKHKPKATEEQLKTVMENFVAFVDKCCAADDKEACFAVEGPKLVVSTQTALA
bovine serum albumin (BSA), sequence (P02769 25-607): as above
horse myoglobin (0 Cys), sequence (P68082 whole entry): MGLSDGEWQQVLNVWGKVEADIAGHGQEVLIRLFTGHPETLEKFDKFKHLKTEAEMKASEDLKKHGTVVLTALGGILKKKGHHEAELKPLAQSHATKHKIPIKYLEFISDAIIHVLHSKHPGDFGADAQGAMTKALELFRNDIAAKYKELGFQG

Row | quantum efficiency after reacting with DTT relative to before [2] | emission of labeled protein on gel (BSA (35 Cys); 0.5 mM dye) | dye concentration at which maximum intensity was reached (BSA (35 Cys); SDS-PAGE fluorescence intensity of labeled BSA) | labeling time to maximum fluorescence intensity (BSA (35 Cys); labeling at 50° C., 10 min to 4 h) | self-quenching effect versus dye/thiol ratio (BSA (35 Cys); series of dye/thiol ratios) | emission of labeled protein on gel (horse myoglobin (0 Cys)) | quantum efficiency [3] | PL intensity relative to the mixture with 70% water [4] | SMILES | fluorescence intensity of labeled BSA versus dye concentration [1]
1 |  |  |  |  |  |  |  |  | O=S(=O)([O-])CCCOc1ccc(C(=C(c2ccccc2)c2ccc(OCCCS(=O)(=O)[O-])cc2)c2ccccc2)cc1.[Na+].[Na+] (mixture of isomers) [TPE-SO3] | increased continuously
2 | approximately 3 times | much higher emission than yeast enolase | ≥ 0.5 mM | 3 h | kept on increasing | no fluorescence at all | 31.7% | approximately 50 fold | BrCc1ccc(C(=C(c2ccccc2)c2ccccc2)c2ccccc2)cc1 [TPEMBR] | 
